# Data published in US11571459B2, “Methods for treating cancer using PS-targeting antibodies with immuno-oncology agents” (ONCXERNA THERAPEUTICS, INC., priority 2017, dated 2023).
# Like-named read-outs stand apart in the source and are kept apart here.
# Key:
# [1] = test system: locally advanced or metastatic breast cancer; assay: Phase II bavituximab plus docetaxel in breast cancer; type: in vivo, human; conditions: with docetaxel
# From the text: This trial was also a Phase II, multicenter trial utilizing a Simon 2-stage design. […] The primary objective was to determine the ORR (CR+PR). Secondary objectives included time to tumor progression, DOR, OS and safety.
# All patients received one prior chemotherapy regimen.
# [2] = test system: HER2-negative metastatic breast cancer; assay: Bavituximab and paclitaxel in HER2-negative metastatic breast cancer; type: in vivo, human
# From the text: Manageable infusion-related reactions were the most common AE related to bavituximab.
# hepatitis C virus (HCV) = assay: Phase Ib escalating repeat-dose study in chronic HCV; type: in vivo, human; conditions: for viral load: Phase Ib
# Method: Bavituximab was first evaluated in Phase I, open-label, dose escalation studies and Phase Ib, open-label, escalating repeat-dose studies in patients chronically infected with hepatitis C virus (HCV). […] Doses of 0.1, 0.3, 1, 3 and 6 mg/kg were administered in Phase I (30 patients; successive cohorts of 6 patients), and doses of 0.3, 1, 3 and 6 mg/kg were administered in Phase Ib (24 patients; four cohorts of 6 patients).
# [3] = irrespective of the presence of serum; cited from earlier work
# [4] = Administration to monkeys (safety); type: in vivo
# tumors = assay: Syngeneic and xenogeneic tumor models; type: in vivo, mice; conditions: wide range of studies
# Method: The 3G4 antibody was purified to apparent homogeneity from the supernatant of the cultured hybridoma using a standard Protein A procedure.
# In early studies in mice, it was calculated that molar ratios of β2GPI to antibody of between 0.12 and 0.25 were effective for anti-tumor activity, thus showing that high levels of β2GPI are not necessary for anti-tumor activity.
# [5] = Administration to rats (safety); type: in vivo; conditions: doses above 10 mg/kg
# HCV and HIV = assay: Phase Ib repeat-dose study in patients co-infected with chronic HCV and HIV; type: in vivo, human
# Method: The primary objectives were to determine the safety, tolerability, PK profile, viral kinetics, MTD and/or MED. The study involved 16 scheduled visits over approximately 16 weeks. […] Dose escalation proceeded after all patients in the cohort had completed the first 4 weeks of dosing with no thrombotic events classified as serious adverse events (SAEs).
# The median baseline HCV viral load was 6.76 log10 and the median baseline for HIV was 3.99 log10. Plasma viral loads of HCV and HIV were measured at specific time points during the study.
# [6] = test system: previously treated non-squamous NSCLC
# Method: The primary objective of this study was to compare the ORR (CR+PR) among the treatment arms. Secondary objectives included comparing PFS, DR, OS, safety and PK.
# Additional blood draws were performed for these patients during Cycles 1 and 2 at specified time points.
# Samples from the NSCLC Phase II trial of Example IX (PPHM 0902) were tested using the functional β2GPI assay of Example XII.
# [7] = test system: locally advanced or metastatic breast cancer; assay: Phase II bavituximab plus paclitaxel and carboplatin in breast cancer; conditions: with paclitaxel and carboplatin
# From the text: This Phase II study utilized a Simon 2-stage design. […] The primary objective was to determine the overall response rate (ORR), defined as complete response (CR) plus partial response (PR), CR+PR. Secondary objectives included time to tumor progression, duration of response (DOR or DR), overall survival (OS) and safety.
# [8] = test system: advanced hepatocellular carcinoma (HCC); assay: Phase II bavituximab and sorafenib in HCC; type: in vivo, human
# Method: A Phase II, single institution study of bavituximab and sorafenib in advanced hepatocellular carcinoma (HCC) was conducted. […] Secondary endpoints included overall survival (OS), disease specific survival, 4 month progression free survival, safety and response rate. The study accrued 38 patients.
# PS = assay: ELISA binding to PS-coated plates
# Method: The 3G4 antibody was produced by immunizing mice with autologous, PS-positive endothelial cells, as reported in Ran et al., 2005. The 3G4 antibody was tested for binding to PS in a standard ELISA in the presence and absence of serum, and was initially characterized as being “serum-independent”, i.e., an antibody that binds to PS in the absence of serum.
# In a follow-on study, the binding of the 2aG4 antibody to PS was tested in an ELISA in the presence of varying concentrations of human β2GPI.
# These included binding to PS in ELISAs, FACS analyses using PS-positive cells and functional assays in the form of an NFAT surrogate ADCC bioassay (Larson et al., 2013).
# [9] = 3 mg/kg weekly with paclitaxel, 14 patients
# [10] = ITT, all with docetaxel, Bavituximab arm 3 mg/kg
substance,measurement,setting,value
bavituximab,median DOR,[1],6.1 months
same,median PFS,[1],7.4 months
same,most common TEAEs of Grade ≥3,[1],"only fatigue, headache, back pain and hypertension were Grade ≥3"
same,CR,[1]; 46 patients,10.9%
same,PR,[1]; 46 patients,50.0%
same,objective response,[1]; 46 patients,60.9%
same,median OS,[1]; final analysis,approximately 20.7 months
same,median progression-free survival (PFS),[2]; 3 mg/kg weekly with paclitaxel,7.3 months
same,overall response rate (ORR),[2]; [9],85%
same,patients having a complete response,[2]; [9],2 patients
same,tolerability,[2]; in combination with paclitaxel,well tolerated
same,most common adverse events,[2]; with paclitaxel,"Bone pain, fatigue, headache and neutropenia"
same,thrombogenicity,[2]; with paclitaxel,no evidence for increased thrombogenicity
same,viral load,"hepatitis C virus (HCV); 3 mg/kg, throughout treatment and follow-up",consistent decreases in HCV
same,viral load,"hepatitis C virus (HCV); doses of 0.3, 1 and 6 mg/kg",small decreases in viral load
same,accumulation / time-dependent PK differences,"hepatitis C virus (HCV); all dose levels, day 0 and day 10",no evidence of accumulation of bavituximab or time-dependent PK differences
same,"binding to neutral phospholipids PC, SM or PE",[3],no detectable binding
same,effect on β2GPI in the systemic circulation,[4]; 100 mg/kg,transiently decreased β2GPI in the systemic circulation
same,doses safely administered,[4]; doses above 10 mg/kg,up to 100 mg/kg
same,in vivo localization and effects,tumors,localize to tumor vascular endothelium and to exert anti-tumor effects and anti-viral effects
same,doses safely administered,[5],up to 100 mg/kg
same,accumulation / time-dependent PK differences,HCV and HIV; 0.3 to 6 mg/kg once weekly for 8 weeks,did not exhibit time-dependent PK differences or accumulation
same,maximum reduction in HCV and/or HIV viral load from baseline,"HCV and HIV; several patients in each treatment group, all dose levels",≥ 0.5 log10
same,ORR greater than combined group by,[6]; 3 mg/kg,approximately 50%
same,median OS longer than combined group by,[6]; 3 mg/kg,approximately 60%
same,Deaths,[6]; [10],53.7%
same,Number of Deaths,[6]; [10],22
same,Overall Response Rate (CR + PR),"[6]; ITT, central review, all with docetaxel, Bavituximab arm 3 mg/kg",17.1%
same,pharmacokinetic drug-drug interaction,"[6]; PK sub-study, 6 patients per arm, cycles 1 and 2",No clinically relevant pharmacokinetic drug-drug interaction was observed
same,mOS,"[6]; functional β2GPI less than 200 μg/mL, bavituximab 3 mg/kg with docetaxel",9.4 months
same,mOS,"[6]; functional β2GPI ≥200 μg/mL, bavituximab 3 mg/kg, all with docetaxel",16.8 months
same,median PFS,[7],6.9 months
same,median duration of response (DOR),[7],3.7 months
same,CR,[7]; 46 patients,10.9%
same,Grade 3 anemia,[7]; 46 patients,10.9%
same,Grade 3 leukopenia,[7]; 46 patients,23.9%
same,Grade 3 neutropenia,[7]; 46 patients,19.6%
same,Grade 4 neutropenia,[7]; 46 patients,26.1%
same,PR,[7]; 46 patients,63.0%
same,objective response per RECIST,[7]; 46 patients,73.9%
same,median OS,[7]; at study closure,23.2 months
same,patients with increased infiltration of activated tumor-fighting T-cells (CD8) into the tumor microenvironment,[8]; after one cycle,Three of the six patients
same,"anorexia, all grade",[8]; with sorafenib,24%
same,"diarrhea, all grade",[8]; with sorafenib,32%
same,"fatigue, all grade",[8]; with sorafenib,26%
same,four month PFS,[8]; with sorafenib,61%
same,median OS (mOS),[8]; with sorafenib,6.2 months
same,partial response,[8]; with sorafenib,Two patients achieved partial response
same,tolerability,[8]; with sorafenib,well tolerated
same,grade 4 or 5 adverse events,"[8]; with sorafenib, 38 patients",no grade 4 or 5 adverse events recorded
same,binding to PS in ELISA in the absence of serum,PS; antibody expressed in CHO cells under serum-free conditions,binding to PS was lost
same,binding to phospholipids in standard ELISA,PS; phospholipid-coated ELISA plates,bound at least as well as the murine 3G4
